Patent US9440957B2, “Compounds and compositions for modulating EGFR Activity” (Novartis AG, priority 2012, dated 2016)
Like-named read-outs stand apart in the source and are kept apart here.

Experiments:
[1] = target: human EGFR WT (NIH/3T3 cells, EGF-induced) (Homo sapiens, UniProt P00533); assay: EGFR target modulation in engineered NIH/3T3 cell lines (phospho-EGFR Y1068 AlphaLISA), EGFR WT; format: cell-based; settings: engineered NIH/3T3 cells, read-out: NIH3T3 IC50 (μM) EGFR (WT)
Procedure, shortened: (§1)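 Read-out is phospho-Y1068 AlphaLISA on cell lysates, with anti-total EGFR at 1 nM final equilibrated 1 h at room temperature. Cells were dosed 3 h with a 12-point 1:3 series starting from a 10 μM stock. Only the WT line received 50 ng/ml EGF for 5 min.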

HEKn (EGFR WT) = HEKn (EGFR WT) (Homo sapiens, UniProt P00533); assay: EGFR target modulation in HEKn (EGFR-WT) cell line (phospho-EGFR Y1173 ELISA); format: cell-based; settings: value outside parentheses
HEKn (EGFR WT), sequence (P00533 25-1210): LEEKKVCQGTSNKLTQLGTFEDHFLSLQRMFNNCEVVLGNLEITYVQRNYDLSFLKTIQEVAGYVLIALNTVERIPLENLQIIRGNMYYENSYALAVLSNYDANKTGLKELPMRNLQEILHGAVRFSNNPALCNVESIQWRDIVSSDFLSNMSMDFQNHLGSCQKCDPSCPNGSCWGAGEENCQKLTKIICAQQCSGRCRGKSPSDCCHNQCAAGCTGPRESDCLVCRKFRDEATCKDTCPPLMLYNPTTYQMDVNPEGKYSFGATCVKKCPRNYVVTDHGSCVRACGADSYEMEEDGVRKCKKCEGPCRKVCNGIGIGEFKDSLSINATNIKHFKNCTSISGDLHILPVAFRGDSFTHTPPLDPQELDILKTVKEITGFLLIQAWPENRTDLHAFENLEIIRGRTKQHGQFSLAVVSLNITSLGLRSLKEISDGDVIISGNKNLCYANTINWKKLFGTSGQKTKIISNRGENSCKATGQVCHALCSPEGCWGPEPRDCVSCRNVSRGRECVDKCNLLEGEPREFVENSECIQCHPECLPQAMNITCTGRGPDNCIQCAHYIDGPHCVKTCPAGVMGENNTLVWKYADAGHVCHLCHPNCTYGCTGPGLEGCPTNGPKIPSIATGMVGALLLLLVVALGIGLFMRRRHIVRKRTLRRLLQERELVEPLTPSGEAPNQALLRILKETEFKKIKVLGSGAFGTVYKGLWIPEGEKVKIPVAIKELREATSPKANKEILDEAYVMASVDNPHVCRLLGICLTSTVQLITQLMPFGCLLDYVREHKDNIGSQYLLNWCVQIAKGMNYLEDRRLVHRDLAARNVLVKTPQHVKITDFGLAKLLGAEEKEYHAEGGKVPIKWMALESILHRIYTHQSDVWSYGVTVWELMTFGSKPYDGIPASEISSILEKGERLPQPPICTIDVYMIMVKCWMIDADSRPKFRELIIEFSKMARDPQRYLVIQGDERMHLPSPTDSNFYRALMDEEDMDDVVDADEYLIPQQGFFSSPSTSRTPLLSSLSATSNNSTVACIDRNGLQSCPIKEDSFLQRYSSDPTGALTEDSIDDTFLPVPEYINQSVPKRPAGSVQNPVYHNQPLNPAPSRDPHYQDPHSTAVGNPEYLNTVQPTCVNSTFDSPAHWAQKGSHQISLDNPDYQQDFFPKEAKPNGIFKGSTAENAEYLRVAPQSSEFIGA
Method: EGFR Target Modulation in HEKn (EGFR-WT) Cell Line Tissue Culture. Human neonatal epithelial keratinocytes (Invitrogen #C-001-5C) were maintained in EpiLife media (Invitrogen #[…]) supplemented with growth factors (Invitrogen #S-001-5). Cells were harvested with 0.05% Trypsin/EDTA (Hyclone #SH30236.01) and quenched with 5% FBS/EpiLife media. […] The serial diluted compounds were transferred to the plate containing cells by using a 50 nl Pin Head device (Perkin Elmer) and the cells were placed back in the incubator for 3 hours. […] Phospho-EGFR (Y1173) ELISA. Solid white high-binding ELISA plates (Greiner #781074) were coated with 5 ug/ml anti-EGFR capture antibody (R&D Systems #AF231) overnight in 50 mM carbonate/bicarbonate pH 9.5 buffer. […] Wash steps were carried out with a Bio-Tek ELx405 SelectTM using 4 cycles of 100 ul TBS-T (20 mM Tris, 137 mM NaCl, 0.05% Tween-20) per well. […] Lysis was allowed to occur for 20 minutes on ice. A 25 ul aliquot was added to each well of the blocked ELISA plate and incubated overnight at 4° C. with gentle shaking. […] After washing, 1:2,000 anti-rabbit-HRP (Cell Signaling #7074) in 0.2% BSA/TBS-T was added and incubated for 1 hour at room temperature. Chemiluminescent detection was carried out with SuperSignal ELISA Pico substrate (ThermoScientific #37069). Signal was read on EnVision plate reader using built-in UltraLUM setting. Data Analysis. Control cells treated with EGF were set to 100% maximum response. […] With these parameters, the IC50's for each compound in each cell line was calculated using non-linear curve fitting analysis.

[2] = target: human EGFR L858R (NIH/3T3 cells) (Homo sapiens, UniProt P00533, L858R); assay: EGFR target modulation in engineered NIH/3T3 cell lines (phospho-EGFR Y1068 AlphaLISA), EGFR L858R; format: cell-based; settings: engineered NIH/3T3 cells, read-out: NIH3T3 IC50 (μM) EGFR (L858R)
human EGFR L858R (NIH/3T3 cells), sequence (P00533 25-1210 L858R): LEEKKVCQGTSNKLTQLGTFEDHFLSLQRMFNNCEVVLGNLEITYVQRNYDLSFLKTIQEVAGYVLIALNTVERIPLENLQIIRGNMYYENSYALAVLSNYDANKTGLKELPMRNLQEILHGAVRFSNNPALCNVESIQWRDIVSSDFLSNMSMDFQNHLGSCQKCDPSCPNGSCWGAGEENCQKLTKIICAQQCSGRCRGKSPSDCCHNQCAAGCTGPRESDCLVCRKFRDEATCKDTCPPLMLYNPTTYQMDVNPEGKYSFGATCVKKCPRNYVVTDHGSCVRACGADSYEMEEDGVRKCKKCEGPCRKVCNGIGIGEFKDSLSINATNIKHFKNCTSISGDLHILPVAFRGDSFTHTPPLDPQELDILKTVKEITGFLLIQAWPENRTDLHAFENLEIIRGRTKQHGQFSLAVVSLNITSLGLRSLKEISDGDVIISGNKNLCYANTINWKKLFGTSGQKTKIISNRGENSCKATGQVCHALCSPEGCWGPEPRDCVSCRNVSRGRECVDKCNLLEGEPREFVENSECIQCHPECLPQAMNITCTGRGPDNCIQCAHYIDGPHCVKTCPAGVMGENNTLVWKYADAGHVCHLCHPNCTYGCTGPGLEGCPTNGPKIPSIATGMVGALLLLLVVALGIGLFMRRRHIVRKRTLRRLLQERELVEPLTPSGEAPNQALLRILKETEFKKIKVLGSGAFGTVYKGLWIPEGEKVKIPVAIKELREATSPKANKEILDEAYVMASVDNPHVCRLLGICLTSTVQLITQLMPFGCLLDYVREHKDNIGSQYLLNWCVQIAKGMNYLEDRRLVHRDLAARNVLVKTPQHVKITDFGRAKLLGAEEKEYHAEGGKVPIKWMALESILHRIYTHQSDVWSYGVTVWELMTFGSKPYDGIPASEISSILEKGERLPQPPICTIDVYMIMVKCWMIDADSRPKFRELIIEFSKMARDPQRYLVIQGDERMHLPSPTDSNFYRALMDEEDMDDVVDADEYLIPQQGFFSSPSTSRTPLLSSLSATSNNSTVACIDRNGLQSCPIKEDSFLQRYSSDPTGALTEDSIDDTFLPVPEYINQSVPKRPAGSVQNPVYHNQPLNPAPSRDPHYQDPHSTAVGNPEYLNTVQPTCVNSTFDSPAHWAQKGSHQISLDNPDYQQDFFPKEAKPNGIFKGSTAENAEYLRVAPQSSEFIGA
Procedure, shortened: as §1

[3] = target: human EGFR L858R/T790M (NIH/3T3 cells) (Homo sapiens, UniProt P00533, L858R/T790M); assay: EGFR target modulation in engineered NIH/3T3 cell lines (phospho-EGFR Y1068 AlphaLISA), EGFR L858R/T790M; format: cell-based; settings: engineered NIH/3T3 cells, read-out: NIH3T3 IC50 (μM) EGFR (L858R/T790M)
Procedure, shortened: as §1

H1975 (EGFR L858/T790M) = H1975 (EGFR L858/T790M) (Homo sapiens, UniProt P00533, L858R/T790M); assay: EGFR target modulation in H1975 cell line (phospho-EGFR Y1173 ELISA); format: cell-based
Method: (§2) EGFR Target Modulation in H1975, H3255 and HCC827 Cell Lines Tissue Culture. Cells were maintained in 10% FBS/RPMI supplemented with 100 μg/ml Penicillin/Streptomycin (Hyclone #SH30236.01). […] The cells were allowed to incubate overnight in a 37° C., 5% CO2 humidified tissue culture incubator. […] The serial diluted compounds were transferred to the plate containing cells by using a 50 nl Pin Head device (Perkin Elmer) and the cells were placed back in the incubator for 3 hours. Phospho-EGFR ([…]) Target Modulation Assay. The media was reduced to 20 ul using a Bio-Tek ELx 405 SelectTM plate washer. […] The plates were shaken at 4° C. for 20 minutes. An aliquot of 25 ul from each well was transferred to pEGFR(Y1173) ELISA plates for analysis. Phospho-EGFR ([…]) ELISA. Solid white high-binding ELISA plates (Greiner #781074) were coated with 5 ug/ml anti-EGFR capture antibody (R&D Systems #AF231) overnight in 50 mM carbonate/bicarbonate pH 9.5 buffer. Plates were blocked with 1% BSA (Sigma #A7030) in PBS for 1 hour at room temperature. Wash steps were carried out with a Bio-Tek ELx405 SelectTM using 4 cycles of 100 ul TBS-T (20 mM Tris, 137 mM NaCl, 0.05% Tween-20) per well. […] Lysis was allowed to occur for 20 minutes on ice. A 25 ul aliquot was added to each well of the blocked ELISA plate and incubated overnight at 4° C. with gentle shaking. […] After washing, 1:2,000 anti-rabbit-HRP (Cell Signaling #7074) in 0.2% BSA/TBS-T was added and incubated for 1 hour at room temperature. Chemiluminescent detection was carried out with SuperSignal ELISA Pico substrate (ThermoScientific #37069). Signal was read on EnVision plate reader using built-in UltraLUM setting. Data Analysis. Control cells treated with EGF were set to 100% maximum response. […] With these parameters, the IC50's for each compound in each cell line was calculated using non-linear curve fitting analysis.

H3255 (EGFR L858R) = H3255 (EGFR L858R) (Homo sapiens, UniProt P00533, L858R); assay: EGFR target modulation in H3255 cell line (phospho-EGFR Y1173 ELISA); format: cell-based
H3255 (EGFR L858R), sequence (P00533 25-1210 L858R): as above
Method: as §2

EGFR(L858R/T790M) = target: T1, EGFR(L858R/T790M) (Homo sapiens, UniProt P00533, L858R/T790M); assay: EGFR biochemical assay (HTRF), IC50 determinations
T1 construct: purchased from Carna (GST-a.a. 669-1210)
Procedure, shortened: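 HTRF kinase reaction with biotin-TK peptide at room temperature, quenched with EDTA at 60 min and detected with PT66K/SAXL after 1 h. Without preincubation, enzyme starts the reaction with compound, ATP and peptide present. With preincubation, compound, enzyme and peptide sit at room temperature for a set time before ATP is added.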

[4] = EGFR (L858R/T790M) with 90 min pre-incubation, read-out: IC50 (μM) Column B
[5] = EGFR (L858R/T790M) with no pre-incubation, read-out: IC50 (μM) Column A

human EGFR WT (NIH/3T3 cells, EGF-induced), sequence (P00533 25-1210): as the sequence (P00533 25-1210) above

| IC50 [1] [µM] | IC50 (HEKn (EGFR WT)) [nM] | IC50 [2] [µM] | IC50 [3] [µM] | IC50 (H1975 (EGFR L858/T790M)) [nM] | IC50 (H3255 (EGFR L858R)) [nM] | IC50 (EGFR(L858R/T790M); [4]) [µM] | IC50 (EGFR(L858R/T790M); [5]) [µM] | SMILES |
| --- | --- | --- | --- | --- | --- | --- | --- | --- |
| 0.122 | 380 | 0.005 | 0.004 | 10 | 7 | < 0.001 | 0.007 | COc1cc(C(=O)Nc2nc3cccc(C)c3n2C2CCCCN(C(=O)/C=C/CN(C)C)C2)ccn1 (stereo not drawn) [Example 17-48] |
| 0.103 | 320 | 0.003 | < 0.001 | 2 | 5 | < 0.001 | 0.002 | Cc1cccc2nc(NC(=O)c3cccc(S(C)(=O)=O)c3)n(C3CCCCN(C(=O)/C=C/CN(C)C)C3)c12 (stereo not drawn) [Example 17-52] |
| 0.058 | 261 | 0.003 | 0.002 | 2 | 4 | < 0.001 | 0.002 | Cc1cccc2nc(NC(=O)c3cccc(-n4cnnn4)c3)n(C3CCCCN(C(=O)/C=C/CN(C)C)C3)c12 (stereo not drawn) [Example 17-53] |
| 0.56 | 4900 | 0.022 | 0.041 | 78 | 81 | 0.005 | 0.09 | Cc1nccc(C(=O)Nc2nc3cccc(C)c3n2C2CCCCN(C(=O)/C=C/CN(C)C)C2)n1 (stereo not drawn) [Example 17-54] |
| 0.026 | 154 | 0.002 | 0.002 | 3 | 9 | < 0.001 | 0.005 | Cc1cccc2nc(NC(=O)c3ccnc(F)c3)n(C3CCCCN(C(=O)/C=C/CN(C)C)C3)c12 (stereo not drawn) [Example 17-58] |
| 0.05 | 249 | 0.004 | 0.001 | 2 | 15 | < 0.001 | 0.003 | Cc1cccc2nc(NC(=O)c3cncc(C(F)(F)F)c3)n([C@@H]3CCCCN(C(=O)/C=C/CN(C)C)C3)c12 [Example 17-67] |
| 0.023 | 203 | 0.002 | 0.001 | 2 | 8 | < 0.001 | 0.003 | Cc1cncc(C(=O)Nc2nc3cccc(C)c3n2[C@@H]2CCCCN(C(=O)/C=C/CN(C)C)C2)c1 [Example 17-68] |
| 0.02 | 71 | 0.001 | < 0.001 | 1 | 6 | < 0.001 | 0.002 | Cc1cccc2nc(NC(=O)c3cncc(F)c3)n([C@@H]3CCCCN(C(=O)/C=C/CN(C)C)C3)c12 [Example 17-69] |
| 0.035 | 185 | 0.001 | < 0.001 | < 1 | 7 | < 0.001 | < 0.001 | Cc1cccc2nc(NC(=O)c3cncc(-n4cccc4)c3)n([C@@H]3CCCCN(C(=O)/C=C/CN(C)C)C3)c12 [Example 17-70] |
| 0.029 | 134 | 0.002 | 0.002 | 2 | 3 | < 0.001 | 0.002 | COc1cc(C(=O)Nc2nc3cccc(C)c3n2[C@@H]2CCCCN(C(=O)/C=C/CN(C)C)C2)ccn1 [Example 17-71] |
| 0.063 | 220 | 0.004 | 0.001 | 3 | 12 | < 0.001 | 0.004 | Cc1cc(C(=O)Nc2nc3cccc(C)c3n2[C@@H]2CCCCN(C(=O)/C=C/CN(C)C)C2)cc(C)n1 [Example 17-72] |
| 0.076 | 261 | 0.004 | 0.002 | 2 | 11 | < 0.001 | 0.003 | Cc1cc(C(=O)Nc2nc3cccc(C)c3n2[C@@H]2CCCCN(C(=O)/C=C/CN(C)C)C2)cc(Cl)n1 [Example 17-74] |
